Test results: patent US20080200454A1, “CARBON-LINKED TETRAHYDRO-PYRAZOLO-PYRIDINE MODULATORS OF CATHEPSIN S” (priority 2007, published 2008)
Structures can show the parent of a compound that is named as a salt.

target: Recombinant human cathepsin S (CatS) (Homo sapiens, UniProt P25774); assay: Recombinant human cathepsin S (CatS) inhibition assay, fluorogenic substrate Z-Valine-Valine-Arginine-AMC; conditions: not given;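 note: Baculovirus-expressed CatS in pH 5.0 sodium acetate buffer with DTT and NaCl, fluorescence read each minute over 20 min, inhibition derived from rate slope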
Sequence (P25774 115-331): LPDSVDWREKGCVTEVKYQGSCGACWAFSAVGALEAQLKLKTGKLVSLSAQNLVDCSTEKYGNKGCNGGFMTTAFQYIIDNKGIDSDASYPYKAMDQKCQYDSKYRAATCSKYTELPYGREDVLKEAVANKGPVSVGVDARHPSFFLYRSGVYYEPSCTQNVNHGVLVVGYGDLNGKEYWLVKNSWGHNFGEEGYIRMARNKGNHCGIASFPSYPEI

IC50	Structure (SMILES)
1690 nM	CS(=O)(=O)N1CCc2c(c(-c3ccc(Cl)c(CCCCNC4CCCC4)c3)nn2CCCN2CCC(N3CCCC3=O)CC2)C1 [Example 115, 1-[1-(3-{3-[4-Chloro-3-(4-cyclopentylamino-butyl)-phenyl]-5-methanesulfonyl-4,5,6,7-tetrahydro-pyrazolo[4,3-c]pyridin-1-yl}-propyl)-piperidin-4-yl]-pyrrolidin-2-one]
1430 nM	CS(=O)(=O)N1CCc2c(c(-c3ccc(Cl)c(CCCN4CCOCC4)c3)nn2CCCN2CCC(N3CCCC3=O)CC2)C1 [Example 105, 1-[1-(3-{3-[4-Chloro-3-(3-morpholin-4-yl-propyl)-phenyl]-5-methanesulfonyl-4,5,6,7-tetrahydro-pyrazolo[4,3-c]pyridin-1-yl}-propyl)-piperidin-4-yl]-pyrrolidin-2-one]
3030 nM	CS(=O)(=O)N1CCc2c(c(-c3ccc(Cl)c(CCCCN4CCCCC4)c3)nn2CCCN2CCC(N3CCCC3=O)CC2)C1 [Example 110, 1-[1-(3-{3-[4-Chloro-3-(4-piperidin-1-yl-butyl)-phenyl]-5-methanesulfonyl-4,5,6,7-tetrahydro-pyrazolo[4,3-c]pyridin-1-yl}-propyl)-piperidin-4-yl]-pyrrolidin-2-one]
30 nM	C[C@H]1COCCN1CCCn1nc(-c2ccc(Cl)c(C#Cc3ccc(Cl)c(CNCC(C)(C)O)c3)c2)c2c1CCN(C(=O)C(N)=O)C2 [Example 561, 2-(3-{4-Chloro-3-[(4-chloro-3-{[(2-hydroxy-2-methylpropyl)amino]methyl}phenyl)ethynyl]phenyl}-1-{3-[(3S)-3-methylmorpholin-4-yl]propyl}-1,4,6,7-tetrahydro-5H-pyrazolo[4,3-c]pyridin-5-yl)-2-oxoacetamide]
520 nM	CS(=O)(=O)N1CCc2c(c(-c3ccc(Cl)c(CCCNS(=O)(=O)c4ccccc4C(=O)O)c3)nn2CCCN2CCC(N3CCCC3=O)CC2)C1 [Example 88, 2-{3-[2-Chloro-5-(5-methanesulfonyl-1-{3-[4-(2-oxo-pyrrolidin-1-yl)-piperidin-1-yl]-propyl}-4,5,6,7-tetrahydro-1H-pyrazolo[4,3-c]pyridin-3-yl)-phenyl]-propylsulfamoyl}-benzoic acid, trifluoroacetic acid salt]
30 nM	NC(=O)N1CCc2c(c(-c3ccc(Cl)c(C#Cc4ccc(Cl)c(CNC5CCCC5)c4)c3)nn2CCCN2CCSCC2)C1 [Example 599, 3-[4-Chloro-3-({4-chloro-3-[(cyclopentylamino)methyl]phenyl}ethynyl)phenyl]-1-(3-thiomorpholin-4-ylpropyl)-1,4,6,7-tetrahydro-5H-pyrazolo[4,3-c]pyridine-5-carboxamide]
90 nM	CS(=O)(=O)N1CCc2c(c(-c3ccc(Cl)c(CCc4ccc5c(c4)CNCC5)c3)nn2CCCN2CCCCC2)C1 [Example 228, 7-(2-{2-Chloro-5-[5-(methylsulfonyl)-1-(3-piperidin-1-ylpropyl)-4,5,6,7-tetrahydro-1H-pyrazolo[4,3-c]pyridin-3-yl]phenyl}ethyl)-1,2,3,4-tetrahydroisoquinoline]
2860 nM	COC(=O)C1c2ccc(C#Cc3cc(-c4nn(CCCN5CCOCC5)c5c4CN(S(C)(=O)=O)CC5)ccc3Cl)cc2CCN1C(=O)OC(C)(C)C (stereo not drawn) [Example 207, 2-(1,1-Dimethylethyl) 1-methyl 6-({2-chloro-5-[5-(methylsulfonyl)-1-(3-morpholin-4-ylpropyl)-4,5,6,7-tetrahydro-1H-pyrazolo[4,3-c]pyridin-3-yl]phenyl}ethynyl)-3,4-dihydroisoquinoline-1,2(1H)-dicarboxylate]
30 nM	NC(=O)C(=O)N1CCc2c(c(-c3ccc(Cl)c(C#Cc4ccc(CNCc5ccc(Cl)cc5)cc4)c3)nn2CCCN2CCSCC2)C1 [Example 414, 2-[3-(4-Chloro-3-{[4-({[(4-chlorophenyl)methyl]amino}methyl)phenyl]ethynyl}phenyl)-1-(3-thiomorpholin-4-ylpropyl)-1,4,6,7-tetrahydro-5H-pyrazolo[4,3-c]pyridin-5-yl]-2-oxoacetamide]
1100 nM	Cc1ccccc1S(=O)(=O)NCCCc1cc(-c2nn(CCCN3CCC(N4CCCC4=O)CC3)c3c2CN(S(C)(=O)=O)CC3)ccc1Cl [Example 94, N-{3-[2-Chloro-5-(5-methanesulfonyl-1-{3-[4-(2-oxo-pyrrolidin-1-yl)-piperidin-1-yl]-propyl}-4,5,6,7-tetrahydro-1H-pyrazolo[4,3-c]pyridin-3-yl)-phenyl]-propyl}-2-methyl-benzenesulfonamide]
840 nM	CS(=O)(=O)N1CCc2c(c(-c3ccc(Cl)c(CCCN4CCCCC4)c3)nn2CCCN2CCC(N3CCCC3=O)CC2)C1 [Example 102, 1-[1-(3-{3-[4-Chloro-3-(3-piperidin-1-yl-propyl)-phenyl]-5-methanesulfonyl-4,5,6,7-tetrahydro-pyrazolo[4,3-c]pyridin-1-yl}-propyl)-piperidin-4-yl]-pyrrolidin-2-one]
530 nM	COc1ccc(CCc2cc(-c3nn(CCCN4CCOCC4)c4c3CN(S(C)(=O)=O)CC4)ccc2Cl)cc1 [Example 58, 3-{4-Chloro-3-[2-(4-methoxy-phenyl)-ethyl]-phenyl}-5-methanesulfonyl-1-(3-morpholin-4-yl-propyl)-4,5,6,7-tetrahydro-1H-pyrazolo[4,3-c]pyridine]

same assay, conditions: CatS IC50

Structure (SMILES)	IC50
C[C@H]1COCCN1CCCn1nc(-c2ccc(Cl)c(C#Cc3ccc4c(c3)CCN(C)C4)c2)c2c1CCN(S(C)(=O)=O)C2 [Example 519, 6-({2-Chloro-5-[1-{3-[(3S)-3-methylmorpholin-4-yl]propyl}-5-(methylsulfonyl)-4,5,6,7-tetrahydro-1H-pyrazolo[4,3-c]pyridin-3-yl]phenyl}ethynyl)-2-methyl-1,2,3,4-tetrahydroisoquinoline]	400 nM
CCCNCc1cc(C#Cc2cc(-c3nn(CCCN4CCOC[C@@H]4C)c4c3CN(C(=O)C(N)=O)CC4)ccc2Cl)ccc1Cl [Example 270, (S)-2-{3-[4-Chloro-3-(4-chloro-3-propylaminomethyl-phenylethynyl)-phenyl]-1-[3-(3-methyl-morpholin-4-yl)-propyl]-1,4,6,7-tetrahydro-pyrazolo[4,3-c]pyridin-5-yl}-2-oxo-acetamide]	20 nM
Cc1ccc(C#Cc2cc(-c3nn(CCCN4CCOCC4)c4c3CN(S(C)(=O)=O)CC4)ccc2Cl)cc1 [Example 29, 3-(4-Chloro-3-p-tolylethynyl-phenyl)-5-methanesulfonyl-1-(3-morpholin-4-yl-propyl)-4,5,6,7-tetrahydro-1H-pyrazolo[4,3-c]pyridine]	280 nM
CS(=O)(=O)N1CCc2c(c(-c3ccc(Cl)c(C#Cc4cccs4)c3)nn2CCCN2CCOCC2)C1 [Example 12, 3-(4-Chloro-3-thiophen-2-ylethynyl-phenyl)-5-methanesulfonyl-1-(3-morpholin-4-yl-propyl)-4,5,6,7-tetrahydro-1H-pyrazolo[4,3-c]pyridine]	790 nM
CS(=O)(=O)N1CCc2c(c(-c3ccc(Cl)c(C#Cc4ccc(CN5CCCC5)cc4)c3)nn2CCCN2CCOCC2)C1 [Example 78, 3-[4-Chloro-3-(4-pyrrolidin-1-ylmethyl-phenylethynyl)-phenyl]-5-methanesulfonyl-1-(3-morpholin-4-yl-propyl)-4,5,6,7-tetrahydro-1H-pyrazolo[4,3-c]pyridine]	1400 nM
COC(=O)[C@H]1Cc2ccc(C#Cc3cc(-c4nn(CCCN5CCOCC5)c5c4CN(S(C)(=O)=O)CC5)ccc3Cl)cc2CN1 [Example 200, Methyl (3R)-7-({2-chloro-5-[5-(methylsulfonyl)-1-(3-morpholin-4-ylpropyl)-4,5,6,7-tetrahydro-1H-pyrazolo[4,3-c]pyridin-3-yl]phenyl}ethynyl)-1,2,3,4-tetrahydroisoquinoline-3-carboxylate]	90 nM
CS(=O)(=O)N1CCc2c(c(-c3ccc(Cl)c(C#Cc4ccc(CNCc5ccc(Cl)cc5)cc4)c3)nn2CCCN2CCN(c3ccccc3O)CC2)C1 [Example 407, 2-(4-{3-[3-(4-Chloro-3-{[4-({[(4-chlorophenyl)methyl]amino}methyl)phenyl]ethynyl}phenyl)-5-(methylsulfonyl)-4,5,6,7-tetrahydro-1H-pyrazolo[4,3-c]pyridin-1-yl]propyl}piperazin-1-yl)phenol]	20 nM
CC(C)(C)OC(=O)N1CCC(C2CCN(C[C@H](O)Cn3nc(-c4ccc(Cl)c(C#CCc5ccccc5)c4)c4c3CCN(S(C)(=O)=O)C4)CC2)CC1 [Example 232, 1,1-Dimethylethyl 1′-[(2S)-3-{3-[4-chloro-3-(3-phenylprop-1-yn-1-yl)phenyl]-5-(methylsulfonyl)-4,5,6,7-tetrahydro-1H-pyrazolo[4,3-c]pyridin-1-yl}-2-hydroxypropyl]-4,4′-bipiperidine-1-carboxylate]	1530 nM
CS(=O)(=O)N1CCc2c(c(-c3ccc(Cl)c(C#Cc4ccc(CNCc5ccc(Cl)cc5)cc4)c3)nn2CCCN2CCC(N3CCOCC3)CC2)C1 [Example 343, 1-{4-[(2-Chloro-5-{5-(methylsulfonyl)-1-[3-(4-morpholin-4-ylpiperidin-1-yl)propyl]-4,5,6,7-tetrahydro-1H-pyrazolo[4,3-c]pyridin-3-yl}phenyl)ethynyl]phenyl}-N-[(4-chlorophenyl)methyl]methanamine]	40 nM
CS(=O)(=O)N1CCc2c(c(-c3ccc(Cl)c(C#Cc4ccc(CNCc5ccccn5)cc4)c3)nn2CCCN2CCOCC2)C1 [Example 408, 1-[4-({2-Chloro-5-[5-(methylsulfonyl)-1-(3-morpholin-4-ylpropyl)-4,5,6,7-tetrahydro-1H-pyrazolo[4,3-c]pyridin-3-yl]phenyl}ethynyl)phenyl]-N-(pyridin-2-ylmethyl)methanamine]	280 nM

same assay, conditions: CatS IC50, Table 2; average of results obtained

Structure (SMILES)	IC50
CS(=O)(=O)N1CCc2c(c(-c3ccc(Cl)c(C#Cc4ccc(N)cc4)c3)nn2CCCN2CCOCC2)C1 [Example 38, 4-{2-Chloro-5-[5-methanesulfonyl-1-(3-morpholin-4-yl-propyl)-4,5,6,7-tetrahydro-1H-pyrazolo[4,3-c]pyridin-3-yl]-phenylethynyl}-phenylamine]	330 nM
CS(=O)(=O)N1CCc2c(c(-c3ccc(Cl)c(C#Cc4ccccc4)c3)nn2CCCN2CCOCC2)C1 [Example 39, 3-(4-Chloro-3-phenylethynyl-phenyl)-5-methanesulfonyl-1-(3-morpholin-4-yl-propyl)-4,5,6,7-tetrahydro-1H-pyrazolo[4,3-c]pyridine]	610 nM
